Laboratory results taken from US6423689B1, “Peptidyl calcium channel blockers” (Warner-Lambert Company, priority 1997, dated 2002).
pIC50: −log10 of the molar value.

How the values were obtained:
[1] = biological target: T1, N-type Ca2+ channels in IMR-32 cells (Homo sapiens, UniProt Q00975); assay: Inhibition of N-type calcium flux in IMR-32 cells (Indo-1 fluorescence, nitrendipine present); assay type: cell-based; conditions: for inhibition at 1 µM / inhibition at 10 µM: IMR-32; for pIC50: IMR-32 cells, 5 μM nitrendipine, K+ depolarization
T1 construct: host or cells: IMR-32 cells, differentiated with dibutyryl cAMP and bromodeoxyuridine
T1 sequence (Q00975 whole entry): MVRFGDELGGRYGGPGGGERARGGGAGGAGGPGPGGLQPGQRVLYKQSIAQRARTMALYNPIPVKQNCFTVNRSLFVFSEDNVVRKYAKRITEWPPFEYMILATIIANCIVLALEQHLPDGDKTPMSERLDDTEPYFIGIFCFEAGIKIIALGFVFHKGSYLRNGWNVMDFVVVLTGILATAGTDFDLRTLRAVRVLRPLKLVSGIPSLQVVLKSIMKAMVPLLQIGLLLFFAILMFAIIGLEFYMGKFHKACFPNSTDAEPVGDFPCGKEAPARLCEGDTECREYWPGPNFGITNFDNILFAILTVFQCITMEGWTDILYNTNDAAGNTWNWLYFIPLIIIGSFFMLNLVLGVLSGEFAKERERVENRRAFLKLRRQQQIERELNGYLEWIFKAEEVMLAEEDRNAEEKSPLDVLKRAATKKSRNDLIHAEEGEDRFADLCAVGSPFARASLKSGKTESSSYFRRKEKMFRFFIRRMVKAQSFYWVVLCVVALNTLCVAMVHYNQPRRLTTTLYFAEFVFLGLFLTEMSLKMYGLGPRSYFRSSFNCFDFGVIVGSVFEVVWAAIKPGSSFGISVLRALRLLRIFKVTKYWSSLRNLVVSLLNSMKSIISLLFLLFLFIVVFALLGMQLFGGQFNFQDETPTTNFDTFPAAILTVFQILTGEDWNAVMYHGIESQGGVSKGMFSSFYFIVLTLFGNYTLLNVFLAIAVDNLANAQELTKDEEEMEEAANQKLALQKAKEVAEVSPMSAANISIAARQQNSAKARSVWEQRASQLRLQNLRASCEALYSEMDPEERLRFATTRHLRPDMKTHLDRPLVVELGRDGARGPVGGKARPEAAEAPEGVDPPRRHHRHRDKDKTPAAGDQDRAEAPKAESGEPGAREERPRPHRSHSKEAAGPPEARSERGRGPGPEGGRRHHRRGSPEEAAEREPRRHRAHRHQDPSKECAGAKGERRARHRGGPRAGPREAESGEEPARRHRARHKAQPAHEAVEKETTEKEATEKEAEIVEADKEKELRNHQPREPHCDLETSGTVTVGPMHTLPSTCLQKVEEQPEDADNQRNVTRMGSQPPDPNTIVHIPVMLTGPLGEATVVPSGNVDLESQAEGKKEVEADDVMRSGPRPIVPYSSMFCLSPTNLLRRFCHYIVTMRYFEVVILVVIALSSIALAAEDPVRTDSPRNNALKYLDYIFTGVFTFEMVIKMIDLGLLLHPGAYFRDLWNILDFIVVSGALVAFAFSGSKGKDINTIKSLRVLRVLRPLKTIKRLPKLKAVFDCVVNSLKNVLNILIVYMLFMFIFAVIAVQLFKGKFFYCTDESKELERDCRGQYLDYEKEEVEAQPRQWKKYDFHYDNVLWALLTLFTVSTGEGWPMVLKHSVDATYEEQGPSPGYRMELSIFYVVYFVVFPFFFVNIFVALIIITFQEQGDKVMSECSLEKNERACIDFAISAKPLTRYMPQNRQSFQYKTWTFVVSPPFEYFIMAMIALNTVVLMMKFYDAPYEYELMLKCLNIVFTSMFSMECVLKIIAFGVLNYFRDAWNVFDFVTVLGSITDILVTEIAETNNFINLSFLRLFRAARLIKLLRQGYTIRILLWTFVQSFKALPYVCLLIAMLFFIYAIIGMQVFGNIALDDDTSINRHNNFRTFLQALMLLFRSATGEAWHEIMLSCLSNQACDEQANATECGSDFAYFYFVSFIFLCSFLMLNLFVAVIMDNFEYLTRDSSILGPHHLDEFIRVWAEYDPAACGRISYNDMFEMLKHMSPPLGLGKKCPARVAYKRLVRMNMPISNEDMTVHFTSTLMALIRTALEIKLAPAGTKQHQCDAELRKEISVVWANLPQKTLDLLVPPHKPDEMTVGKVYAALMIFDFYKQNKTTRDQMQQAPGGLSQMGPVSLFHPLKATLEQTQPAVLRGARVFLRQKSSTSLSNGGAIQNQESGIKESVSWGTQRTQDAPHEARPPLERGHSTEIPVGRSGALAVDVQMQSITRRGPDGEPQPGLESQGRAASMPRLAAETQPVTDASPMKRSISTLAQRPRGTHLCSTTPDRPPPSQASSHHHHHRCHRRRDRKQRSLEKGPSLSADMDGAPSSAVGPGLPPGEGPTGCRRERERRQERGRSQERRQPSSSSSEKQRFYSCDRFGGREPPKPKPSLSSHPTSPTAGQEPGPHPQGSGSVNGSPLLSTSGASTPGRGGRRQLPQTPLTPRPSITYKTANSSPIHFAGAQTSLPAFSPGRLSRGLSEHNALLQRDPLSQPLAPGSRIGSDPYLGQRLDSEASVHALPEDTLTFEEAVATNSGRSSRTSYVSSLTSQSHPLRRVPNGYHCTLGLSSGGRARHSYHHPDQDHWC
T1 sequence (P54289 25-956 partner limits assumed): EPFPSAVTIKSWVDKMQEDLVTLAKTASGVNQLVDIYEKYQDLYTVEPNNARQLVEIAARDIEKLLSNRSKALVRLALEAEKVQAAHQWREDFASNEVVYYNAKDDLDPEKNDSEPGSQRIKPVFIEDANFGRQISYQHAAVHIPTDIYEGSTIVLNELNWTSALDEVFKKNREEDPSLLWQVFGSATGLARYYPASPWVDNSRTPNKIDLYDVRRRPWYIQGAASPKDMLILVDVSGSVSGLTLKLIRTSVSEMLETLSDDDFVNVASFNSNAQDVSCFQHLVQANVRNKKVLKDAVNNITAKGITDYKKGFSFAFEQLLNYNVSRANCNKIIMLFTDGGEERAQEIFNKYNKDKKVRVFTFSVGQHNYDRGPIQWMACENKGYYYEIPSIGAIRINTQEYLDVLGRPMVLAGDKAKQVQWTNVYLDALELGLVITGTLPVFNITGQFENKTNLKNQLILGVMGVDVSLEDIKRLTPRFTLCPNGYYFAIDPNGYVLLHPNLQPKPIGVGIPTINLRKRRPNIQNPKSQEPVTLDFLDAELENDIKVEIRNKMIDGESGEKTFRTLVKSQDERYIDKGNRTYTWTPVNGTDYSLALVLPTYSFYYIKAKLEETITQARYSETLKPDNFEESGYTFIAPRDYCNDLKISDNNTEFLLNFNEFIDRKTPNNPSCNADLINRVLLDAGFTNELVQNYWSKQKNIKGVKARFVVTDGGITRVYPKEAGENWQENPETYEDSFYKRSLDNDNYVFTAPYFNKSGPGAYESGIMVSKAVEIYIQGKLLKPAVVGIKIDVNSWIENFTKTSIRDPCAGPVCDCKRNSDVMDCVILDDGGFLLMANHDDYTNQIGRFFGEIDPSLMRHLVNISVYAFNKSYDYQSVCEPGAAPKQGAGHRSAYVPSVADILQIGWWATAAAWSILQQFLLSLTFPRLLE
T1 sequence (P54289 957-1103 partner limits assumed): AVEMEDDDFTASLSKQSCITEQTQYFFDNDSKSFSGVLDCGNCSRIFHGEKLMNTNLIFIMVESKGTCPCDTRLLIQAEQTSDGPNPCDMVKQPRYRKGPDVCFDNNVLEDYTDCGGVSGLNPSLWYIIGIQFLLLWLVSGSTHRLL
T1 sequence (P54284 whole entry partner): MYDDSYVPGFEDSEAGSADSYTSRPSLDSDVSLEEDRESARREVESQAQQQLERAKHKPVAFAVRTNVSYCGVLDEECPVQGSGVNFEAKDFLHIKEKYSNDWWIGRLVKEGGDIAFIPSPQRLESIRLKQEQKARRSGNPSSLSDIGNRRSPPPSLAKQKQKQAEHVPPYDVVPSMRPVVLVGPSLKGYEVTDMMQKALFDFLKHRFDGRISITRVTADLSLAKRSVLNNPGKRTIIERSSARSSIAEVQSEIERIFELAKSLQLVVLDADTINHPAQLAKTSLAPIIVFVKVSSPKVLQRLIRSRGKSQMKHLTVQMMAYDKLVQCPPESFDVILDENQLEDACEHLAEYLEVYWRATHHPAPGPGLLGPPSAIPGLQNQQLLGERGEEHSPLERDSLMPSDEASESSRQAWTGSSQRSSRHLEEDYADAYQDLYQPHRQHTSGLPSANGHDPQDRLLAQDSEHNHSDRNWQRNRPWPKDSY
Method in brief: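 Differentiated IMR-32 cells (7–13 days) were loaded with 5 μM Indo-1 AM, preincubated with compound for 10 min at 30° C, and depolarized with KCl/CaCl2 stimulation solution, with 5 μM nitrendipine blocking L-channels. Peak-minus-basal 400/490 nm emission ratio was plotted against drug concentration, and IC50 came from four-parameter logistic fits.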

[2] = biological target: T2, N-type Ca2+ channels in superior cervical ganglion (SCG) neurons (Rattus norvegicus, UniProt Q02294); assay: Whole-cell voltage clamp, N-type Ca2+ current in SCG neurons; assay type: cell-based; conditions: for pIC50: read-out: Inhibition of N-type Ca2+ Current IC50
T2 construct: from tissue
Protocol: (§1) Electrophysiological techniques were used to measure the effects of experimental compounds on voltage-gated Ca^2+, Na^+ and K^+ channels. […] Sodium and potassium channel currents were measured from acutely dissociated SCG neurons.
(§2) Dissociation of the neurons from the ganglia was accomplished using a 30 to 45 minute treatment in 0.25% trypsin, similar to methods outlined in Higgins, et al. [see Higgins D., et al. “Tissue culture of mammalian autonomic neurons.” In Banker G. and Goslin K. (Eds), Culturing Nerve Cells, Cambridge, Mass., MIT Press (1991)].
(§3) Ca^2+, Na^+ and K^+ channel currents in SCG neurons were measured using conventional single electrode whole-cell voltage-clamp techniques, outlined in Hamill, et al., (see Hamill O.P., et al. “Improved patch-clamp techniques for high resolution current recordings from cells and cell-free membrane patches”. Pflugers Arch. 1981;391:85-100) For Ca^2+ channel experiments, the external bathing solution contained tetraethylammonium chloride (100 mM), choline chloride (52 mM), NaCl (15 mM), HEPES (10 mM), glucose (5.6 mM), CaCl2 (2 mM), and MgCl2 (0.8 mM) pH 7.35 with KOH; with the internal pipette solution containing cesium methane sulfonate (140 mM), EGTA (10 mM), and HEPES (10 mM), supplemented with 5 mM Mg^2+ -ATP on the day of the experiment, pH 7.4 with CsOH. For Na^+ and K^+ channel experiments, the external bathing solution contained NaCl (150 mM), KCl (5 mM), MgCl2 (1.1 mM), CaCl2 (2.6 mM), Na-HEPES (10 mM), and glucose (10 mM), pH 7.4; with the internal pipette solution containing KCl (80 mM), K-gluconate (50 mM), HEPES (10 mM), and EGTA (10 mM), pH 7.4 with KOH. Experimental compounds were diluted into the external solution and applied to the soma of cells by local perfusion from large diameter (20-50 μm) glass micropipettes or from a U-tube applicator.
After obtaining a whole-cell recording, Ca^2+ channels were elicited by stepping to test potentials between −40 and +20 mV for 120 msec from the holding potential of −90 mV to determine if the amplitude of the current and clamp control were adequate for evaluation of drug effects. Ca^2+ channel currents were evoked by stepping from a holding potentials between −65 mV and −−55 mV to a test potential of +20 mV for 150 msec every 40 seconds. The amplitude of the Ca^2+ channel currents were compared before and during drug application and drug effects expressed as percent inhibition of the amplitude of control currents.

[3] = tested on: K+ channels in superior cervical ganglion (SCG) neurons; assay: Whole-cell voltage clamp, K+ current in SCG neurons; assay type: cell-based, rat; conditions: for pIC50: read-out: Inhibition of K+ Current IC50
Protocol: as §1, §2, §3
(§4) For Na^+ and K^+ channel currents, following the determination of the I/V relationship for each cell in control solution, currents were evoked from a holding potential between −65 and −55 mV by stepping every 10 sec to a test potential of either 0 mV for Na^+ or +50 mV for K^+ current for a duration of 35 msec. Peak inward current was measured for Na^+ and sustained current for K^+ channel currents. […] Test compounds were applied until steady-state block was achieved. Data were expressed as percent inhibition of control amplitudes for Na^+ and K^+ channel currents.

[4] = tested on: Na+ channels in superior cervical ganglion (SCG) neurons; assay: Whole-cell voltage clamp, Na+ current in SCG neurons; assay type: cell-based, rat; conditions: for pIC50: read-out: Inhibition of Na+ Current IC50
Protocol: as §1, §2, §3, §4

CC(C)C[C@H](NC(=O)N1CCCCCC1)C(=O)N[C@@H](Cc1ccc(OCc2cccc(NC(=O)OC(C)(C)C)c2)cc1)C(=O)OC(C)(C)C [Example 28, [S-(R*,R*)]-2-{2-[(Azepane-1-carbonyl)-amino]-4-methyl-pentanoylamino}-3-[4-(3-tert-butoxycarbonylamino-benzyloxy)-phenyl]-propionic acid tert-butyl ester]
inhibition at 1 µM [1]: 42% | inhibition at 10 µM [1]: 65% | pIC50 [1]: 5.74 | inhibition at 10 µM [2]: 40% | Inhibition of K+ Current, % Inhibition at 10 μM [3]: 11% | Inhibition of Na+ Current, % Inhibition at 10 μM [4]: 5%

C[C@H](NC(=O)N1CCCCCC1)C(=O)N[C@@H](Cc1ccc(OCc2ccccc2)cc1)C(=O)OC(C)(C)C (relative stereo) [Example 7, [S-(R*,R*)]-2-{2-[(Azepane-1-carbonyl)-amino]-propionylamino}-3-(4-benzyloxy-phenyl)-propionic acid tert-butyl ester]
Inhibition of Calcium Flux in IMR-32 Cells % Inhibition at 1 μM [1]: 44% | Inhibition of Calcium Flux in IMR-32 Cells % Inhibition at 10 μM [1]: 96% | pIC50 [1]: 5.82 | Inhibition of N-type Ca2+ Current, % Inhibition at 10 μM [2]: 81% | pIC50 [2]: 5.64 | Inhibition of K+ Current, % Inhibition at 10 μM [3]: 70% | Inhibition of Na+ Current, % Inhibition at 10 μM [4]: 52%

O=C(NCCN1CCCCC1)[C@H](Cc1ccc(OCc2ccccc2)cc1)NC(=O)[C@H](CC1CCCCC1)NC(=O)N1CCCCCC1 [Example 162, [S-(R*,R*)]-Azepane-1-carboxylic acid {1-[2-(4-benzyloxy-phenyl)-1-(2-piperidin-1-ylethylcarbamoyl)-ethylcarbamoyl]-2-cyclohexyl-ethyl}-amide]
pIC50 [1]: 6.02 | inhibition at 10 µM [2]: 47% | Inhibition of K+ Current, % Inhibition at 10 μM [3]: 40% | Inhibition of Na+ Current, % Inhibition at 10 μM [4]: 32%

CC(C)C[C@H](NC(=O)N1CCCCCC1)C(=O)N[C@H](Cc1ccc(OCc2ccccc2)cc1)C(=O)OC(C)(C)C [Example 2, 2(R)-{2(S)-[(Azepane-1-carbonyl)-amino]-4-methyl-pentanoylamino}-3-(4-benzyloxy-phenyl)-propionic acid tert-butyl ester]
inhibition at 1 µM [1]: 38% | inhibition at 10 µM [1]: 90% | pIC50 [1]: 5.77 | inhibition at 10 µM [2]: 32% | Inhibition of K+ Current, % Inhibition at 10 μM [3]: 41% | Inhibition of Na+ Current, % Inhibition at 10 μM [4]: 35%

CC(C)C[C@@H](NC(=O)N1CCCCCC1)C(=O)N[C@@H](Cc1ccc(OCc2ccccc2)cc1)C(=O)OC(C)(C)C [Example 3, 2(S)-{2(R)-[(Azepane-1-carbonyl)-amino]-4-methyl-pentanoylamino}-3-(4-benzyloxy-phenyl)-propionic acid tert-butyl ester]
inhibition at 1 µM [1]: 53% | inhibition at 10 µM [1]: 90% | pIC50 [1]: 6.00 | inhibition at 10 µM [2]: 69% | Inhibition of K+ Current, % Inhibition at 10 μM [3]: 39% | Inhibition of Na+ Current, % Inhibition at 10 μM [4]: 12%

CC(C)(C)C[C@H](NC(=O)N1CCCCCC1)C(=O)N[C@@H](Cc1ccc(OCc2ccccc2)cc1)C(=O)NCCN1CCCCC1 [Example 159, [S-(R*,R*)]-Azepane-1-carboxylic acid {1-[2-(4-benzyloxy-phenyl)-1-(2-piperidin-1-ylethylcarbamoyl)-ethylcarbamoyl]-3,3-dimethyl-butyl}-amide]
pIC50 [1]: 6.08 | inhibition at 10 µM [2]: 28% | Inhibition of K+ Current, % Inhibition at 10 μM [3]: 46% | Inhibition of Na+ Current, % Inhibition at 10 μM [4]: 30%

CC(C)C[C@H](NC(=O)N1CCCCCC1)C(=O)N[C@@H](Cc1ccc(OCc2ccccc2)cc1)C(=O)N1CCN(Cc2ccccc2)CC1 (relative stereo) [Example 180, [S-(R*,R*)]-Azepane-1-carboxylic acid {1-[1-(4-benzyloxy-benzyl)-2-(4-benzyl-piperazin-1-yl)-2-oxo-ethylcarbamoyl]-3-methyl-butyl}-amide]
Inhibition of Calcium Flux in IMR-32 Cells % Inhibition at 1 μM [1]: 55% | pIC50 [1]: 6.09 | Inhibition of N-type Ca2+ Current, % Inhibition at 10 μM [2]: 81% | Inhibition of K+ Current, % Inhibition at 10 μM [3]: 60% | Inhibition of Na+ Current, % Inhibition at 10 μM [4]: 20%

CC(C)C[C@H](NC(=O)N1CCCCCC1)C(=O)N[C@@H](Cc1ccc(OCc2ccccc2)cc1)C(=O)NCCO [Example 165, [S-(R*,R*)]-Azepane-1-carboxylic acid {1-[2-(4-benzyloxy-phenyl)-1-(2-hydroxy-ethylcarbamoyl)-ethylcarbamoyl]-3-methyl-butyl}-amide]
pIC50 [1]: 5.44 | inhibition at 10 µM [2]: 84% | pIC50 [2]: 5.63 | Inhibition of K+ Current, % Inhibition at 10 μM [3]: 86% | Inhibition of Na+ Current, % Inhibition at 10 μM [4]: 46% | pIC50 [4]: 5.16

CC(C)C[C@H](NC(=O)N1CCCCCC1)C(=O)N[C@@H](Cc1ccc(OCc2ccccc2)cc1)C(=O)NCCCNC1CCCCC1 [Example 184, [S-(R*,R*)]-Azepane-1-carboxylic acid {1-[2-(4-benzyloxy-phenyl)-1-(3-cyclohexylamino-propylcarbamoyl)-ethylcarbamoyl]-3-methyl-butyl}-amide]
pIC50 [1]: 5.59 | inhibition at 10 µM [2]: 54% | pIC50 [2]: 5.92 | Inhibition of K+ Current, % Inhibition at 10 μM [3]: 89% | pIC50 [3]: 6.31 | Inhibition of Na+ Current, % Inhibition at 10 μM [4]: 82% | pIC50 [4]: 5.31

CCCCNC(=S)N[C@@H](CC(C)C)C(=O)N[C@@H](Cc1ccc(OCc2ccccc2)cc1)C(=O)OC(C)(C)C (relative stereo) [Example 49, [S-(R*,R*)]-3-(4-Benzyloxy-phenyl)-2-[2-(3-butyl-thioureido)-4-methyl-pentanoylamino]-propionic acid tert-butyl ester]
Inhibition of Calcium Flux in IMR-32 Cells % Inhibition at 1 μM [1]: 77% | Inhibition of Calcium Flux in IMR-32 Cells % Inhibition at 10 μM [1]: 99% | pIC50 [1]: 6.57 | Inhibition of N-type Ca2+ Current, % Inhibition at 10 μM [2]: 45% | Inhibition of K+ Current, % Inhibition at 10 μM [3]: −3% | Inhibition of Na+ Current, % Inhibition at 10 μM [4]: 6%

CC(C)CC(NC(=O)N1CCCCCC1)C(=O)NC(Cc1ccc(OCc2ccccc2)cc1)C(=O)NC(C)C(C)C (stereo not drawn) [Example 191, Azepane-1-carboxylic acid {1-[2-(4-benzyloxy-phenyl)-1-(1,2-dimethyl-propylcarbamoyl)-ethylcarbamoyl]-3-methyl-butyl}-amide]
pIC50 [1]: 6.14 | inhibition at 10 µM [2]: 61% | pIC50 [2]: 5.36 | Inhibition of K+ Current, % Inhibition at 10 μM [3]: 64% | pIC50 [3]: 5.24 | Inhibition of Na+ Current, % Inhibition at 10 μM [4]: 38% | pIC50 [4]: 4.37

CC(C)C[C@@H](NC(=O)N1CCCCCC1)C(=O)N[C@H](Cc1ccc(OCc2ccccc2)cc1)C(=O)OC(C)(C)C [Example 4, [R-(R*,R*)]-2-{2-(Azepane-1-carbonyl)-amino]-4-methyl-pentanoylamino}-3-(4-benzyloxy-phenyl)-propionic acid tert-butyl ester]
inhibition at 1 µM [1]: 51% | inhibition at 10 µM [1]: 90% | pIC50 [1]: 6.05 | inhibition at 10 µM [2]: 51% | Inhibition of K+ Current, % Inhibition at 10 μM [3]: 38% | Inhibition of Na+ Current, % Inhibition at 10 μM [4]: 13%

CC(C)C[C@H](NC(=O)N1CCOCC1)C(=O)N[C@@H](Cc1ccc(OCc2ccccc2)cc1)C(=O)NCCN1CCCCC1 [Example 177, [S-(R*,R*)]-Morpholine-4-carboxylic acid {1-[2-(4-benzyloxy-phenyl)-1-(2-piperidin-1-ylethylcarbamoyl)-ethylcarbamoyl]-3-methyl-butyl}-amide]
pIC50 [1]: 5.54 | inhibition at 10 µM [2]: 87% | pIC50 [2]: 5.69 | Inhibition of K+ Current, % Inhibition at 10 μM [3]: 68% | Inhibition of Na+ Current, % Inhibition at 10 μM [4]: 31%
